The values that follow are results of earlier work, collected in US20250190808A1, “DEVICE AND METHOD FOR IM[…] TR[…] NETWORK FOR T[…] SEQUENCE, AND TRAINING DEVICE AND METHOD USING SAME” (LG MANAGEMENT DEVELOPMENT INSTITUTE CO., LTD., priority 2022, published 2025).

pIC50: −log10 of the molar value. Where two headings read alike, the source gives them in different places. Where only a bound is given, the exact number is not on record here.

Series [1] deals with MHC TYPE A*0101. The settings on record: read-out: MHC BINDING (IC50).
For series [2], the system named is T-cell.
For series [3], the system named is MHC TYPE A*0204. The settings on record: read-out: MHC BINDING (IC50).
Series [4] has as its target MHC TYPE A*0201 (Homo sapiens, UniProt P04439, D140Y/D185E/D98H/E176V/E277Q/G131W/G231S/I119V/I121R/I166T/I218V/L300P/L318F/N151K/N90K/P208A/P217A/Q86G/Q94H/R138H/R169H/T345S). The settings on record: read-out: MHC BINDING (IC50).
Series [5] has as its system MHC TYPE B*0101. To be noted: read-out: MHC BINDING (IC50).

With GQIVTMFEA, the pIC50 in series [1] was above 7.00. In addition, the “ACTIVATION OF T-CELL” value in series [2] (MHC type A*0101) is on record as “Negative”.

Consider MFEALPHII, for which, in series [3], the negative-log IC50 (pIC50) is 4.92.

With MGQIVTMFE, the pIC50 in series [4] was 7.68; in series [5], below 4.70. In addition, in series [2] (MHC type A*0201), the “ACTIVATION OF T-CELL” value is given as “Positive”.

The term pIC50 denotes the negative decadic logarithm of the IC50, by convention in mol/L.
